This note sets out measurements from patent US11746103B2, “ALK-5 inhibitors and uses thereof” (Sumitomo Pharma Oncology, Inc., priority 2020, dated 2023).

Each structure is given as a SMILES string.

Data set [1] is described as follows: Longitudinal PK/PD analysis in A549 xenograft mouse model (plasma and tumor PK). In kind it is in vivo. To be noted: 75 mg/kg single oral dose. The procedure:
(§1) In this study, p-SMAD2 (Ser465/Ser467) and a housekeeping gene (GAPDH) were measured at six timepoints from zero (established using vehicle-treated animals) up to twenty-four hours post dose for a single drug dose of seventy-five milligrams per kilogram per subject (three subjects per dosing group).
(§2) For this study, xenografts were prepared and implanted in mice as follows. At five weeks of age, female athymic nude mice (purchased from Charles River) were injected with approximately 3.2 million A549 cells (ATCC, CCL-185). Cells were harvested and resuspended in plain RPMI media (no phenol red added) and Matrigel (Corning 356237) at a one-to-one ratio, and two hundred-microliters of the cell suspension were injected into the right hind flank of each mouse. Tumors were measured every three days by caliper, and as tumors reached an average of ninety millimeters cubed, mice were randomized in groups of three. Each of the test compounds (Ex-10 and Ex-11) was resuspended in 1-methyl-2-pyrrolidinone (Sigma, 494496) (10%) plus 20% Solutol (Sigma 42966) in water (90%). The drug suspensions were sonicated for fifteen minutes to generate a fine particle suspension before being given to the test subjects. Subjects were dosed (per oral gavage) with the suspension. A vehicle control group with three mice was used to establish the baseline and timepoint zero of phospho-SMAD-2 in the tumor xenograft. The test compounds were administered to the respective subject groups at seventy-five milligrams per kilogram. Samples were obtained post administration of test compounds at 20 minutes, one hour, two hours, four hours, and twenty-four hours. Tumors were harvested, snap frozen and stored at negative eighty degrees Celsius until further processing. Plasma was collected from all animals by collecting whole blood via cardiac puncture, followed by centrifugation in tubes containing EDTA (BD, microtainer tubes, 365974). A group of three mice receiving vehicle only served as the zero timepoint for both drug groups. The phospho-SMAD-2 levels were determined using the Bio-Plex Pro™ Phospho-Smad2 (Ser465/Ser467) Set (BioRad 171V50019M). The phospho-SMAD-2 levels were normalized to GAPDH (MILLIPLEX MAP GAPDH Total Magnetic Bead MAPmate™, Millipore 46-667MAG) levels from each sample. All analytes were analyzed in a multiplex fashion with the Bio-Plex Pro Cell Signaling Reagent Kit (BioRad 171304006M). Frozen tumor samples (fifteen to thirty milligrams) were lysed in 100 μl lysis buffer, processed in a bead mill tube, and centrifuged. The resulting lysate was used at 1:50 dilution for the assay according to the manufacturer's instructions. Bead suspension was analyzed using the Luminex system (MAGPIX).

The subject of data set [2] is TGF-β1 mediated alpha-SMA expression in primary human bronchial fibroblasts derived from IPF patients. The data set is described as follows: Fibroblast to Myofibroblast Transformation (FMT) assay. The note with it: for max PIN of TGF-β1 mediated alpha-SMA expression: in at least two donors.
Description: To test the ability of compounds of the invention to inhibit the TGF-β1 dependent transition of fibroblasts to myofibroblasts in a relevant disease model of IPF, a study was carried out using an FMT assay employing lung fibroblasts from IPF patients. In this model the transition of fibroblasts to myofibroblasts is determined by the expression of the biomarker alpha smooth muscle actin (SMA).
Each drug concentration condition was evaluated in biological duplicates. One hour after compound addition, cells were stimulated with 1.25 ng/ml of TGF-01 and cultured for 72 hours thereafter. At the end of 72 hours cells were fixed using formaldehyde. The results were generated using high content imaging after staining cells using the nuclear stain DAPI as well as evaluation of the expression of alpha SMA. […] As a negative control 0.1% DMSO was used matching the DMSO concentration in treated wells.
Data set [3] concerns p-SMAD2 (Ser465/Ser467) in A549 xenograft. The data set can be described thus: Longitudinal PK/PD analysis of p-SMAD2 in A549 xenograft mouse model (PD). The format is in vivo. To be noted: 75 mg/kg single oral dose; for inhibition at 75 mg/kg: Mus musculus, A549, 4 hours post drug administration, read-out: inhibition of p-SMAD2 compared to the vehicle group. The procedure: as §1, §2

Data set [4] deals with KGN cells (FOXL2 C134W). The data set can be described thus: FOXL2 cell viability assay (Cell Titer Glo), KGN. The format is cell-based, human. The procedure:
EX-11 was submitted to a cell viability assay in KGN and COV434 cell lines. KGN cells are derived from FOXL2^C134W AGCT of a person with a recurrent metastatic GCT. COV434 cells are derived from FOXL2WT JGCT of a person with a recurrent metastatic GCT. The cells were seeded in triplicate in 96 well culture plates and treated with nine, 3-fold dilutions of EX-11 or DMSO for 6 days (KGN) or 3 days (Cov434), which represented 3 cell doublings, respectively. Viability was assessed by Cell Titer Glo (Promega).
On the technique in general: In ATP-based viability assays light output follows the ATP content of the culture.

In data set [5] the test system is cancer associated fibroblast (CAF) genes in human primary dermal fibroblasts. The data set can be described thus: CAF gene suppression assay (qPCR). The format is cell-based. The procedure: Human primary dermal fibroblasts (ATCC) were divided into four groups: DMSO-TGFβ, DMSO+TGFβ (1 ng/mL), 30 nM EX-11+TGFβ (1 ng/mL), and 300 nM EX-11+TGFβ (1 ng/mL). Cells were treated for 24 hours, then mRNA was extracted, quantified, and reverse transcribed. qPCR was run for the following cancer associated fibroblast (CAF) genes: ACTA2, FAP, ITGB1, CD9, TAGLN, ANTXR1, SOC1, Lamp5, Col1A2, and TGFβ1, using the TaqMan system in a Quant Studio.
(In general: Quantitative PCR measures a nucleic acid by following its amplification.)

Data set [6] concerns 4T1-luc tumors. The data set is described as follows: 4T1 syngeneic TNBC model. The format is in vivo, mouse. Here is the method:
Tumor measurements were performed via digital calipers.
The vehicle for anti-PD-1 inhibitor was PBS.
The study dosing phase was 21 days. At the end of the study, animals were injected with luciferin, then sacrificed. Ex vivo imaging of the lung and liver tissue was performed to assess metastasis.

One may read the inhibition as the relative decrease from the control value, in per cent. Turning to `Cc1cccc2c(Nc3ccnc(Nc4ccc(N5CCOCC5)cc4)n3)cnnc12` [EX-10, N4-(8-methylcinnolin-4-yl)-N2-(4-morpholino-phenyl)-pyrimidine-2,4-diamine], in data set [1], the “drug concentration in plasma and tumor over time” value was “spiked 20 minutes to 1-hour post drug administration and stayed high up to 4 hours post drug administration”; the “drug in plasma and tumor at 24 hours post drug administration” value is listed as “cleared out of the system completely”. Further, in data set [2] (donor IPF05), the “LogM IC50 αSMA” value was −6.8 LogM, the “Max PIN (%)” value is on record as 106.4% and the “potentially toxic (>25% loss of nuclei)” value is on record as above −5.5. For the same compound, in data set [2] (donor IPF06), the “LogM IC50 αSMA” value is listed as −6.7 LogM and the “Max PIN (%)” value was determined as 110.3%. In addition, in data set [2] (donor IPF08), the “LogM IC50 αSMA” value is −7.0 LogM, the “Max PIN (%)” value is 100.3% and the “potentially toxic (>25% loss of nuclei)” value is above −5.5. In data set [2], the “max PIN of TGF-β1 mediated alpha-SMA expression” value is recorded as “greater than 75”. Besides, in data set [3], the “p-SMAD2 levels at 24 hours post drug administration” value is reported as “rose back to baseline levels” and the inhibition at 75 mg/kg stood at 74.3%.

One may read the IC50 as the midpoint of a concentration-inhibition curve. Consider `Cc1cccc2c(Nc3ccnc(Nc4cccc(N5CCOCC5)c4)n3)cnnc12` [EX-11, N4-(8-methylcinnolin-4-yl)-N2-(3-morpholinophenyl)pyrimidine-2,4-diamine], for which, in data set [1], the “drug in plasma and tumor at 24 hours post drug administration” value is “cleared out of the system”; the “time of maximum drug concentration in plasma and tumor” value is on record as “around 4 hours”. The “sensitivity of KGN cells relative to COV434 cells” value in data set [4] was above 70 fold. In data set [4] (Homo sapiens, 144 h, KGN cells, 6 days), this compound showed a 50% inhibitory concentration (IC50) of 140 nM. Besides, in data set [2] (donor IPF05), the “LogM IC50 αSMA” value is given as −7.2 LogM, the “Max PIN (%)” value is given as 107.2% and the “potentially toxic (>25% loss of nuclei)” value is reported as above −6.0. In data set [2] (donor IPF06), the “LogM IC50 αSMA” value is −7.0 LogM, the “Max PIN (%)” value is 112.9% and the “potentially toxic (>25% loss of nuclei)” value was above −5.5. In data set [2] (donor IPF08), the “LogM IC50 αSMA” value is listed as −7.3 LogM, the “Max PIN (%)” value is 103.7% and the “potentially toxic (>25% loss of nuclei)” value is above −6.0. Moreover, the “inhibition of TGF-β-mediated alpha-SMA expression” value in data set [2] (in all three donors) is listed as “full concentration-dependent inhibition”. The “max PIN of TGF-β1 mediated alpha-SMA expression” value in data set [2] is given as “greater than 75”. Moreover, in data set [5] (300 nM + TGFβ 1 ng/mL), the “TAGLN, Lamp5 and TGFβ1 expression” value is on record as “returned to baseline”; the “decrease of FAP, SDC1 and Col1A2 expression from baseline” value is reported as 20-30%. In addition, in data set [5] (30 and 300 nM + TGFβ 1 ng/mL, 24 hours, all genes except CD9), the “TGFβ-induced upregulation of CAF gene expression” value is “dose dependently reversed”. In addition, the “tumor growth inhibition (TGI) compared to vehicle” value in data set [6] (EX-11 at 75 mg/kg PO BID x 21 days) is “did not result in significant TGI”. In addition, in data set [6] (EX-11 at 150 mg/kg PO BID x 21 days), the “tumor growth inhibition (TGI) compared to vehicle” value amounted to 38%. Besides, the “ex vivo luminescence of liver (metastasis) compared to vehicle” value in data set [6] (EX-11 at 150 mg/kg where given) is on record as “stronger reduction in luminescence”. Besides, in data set [3], the “p-SMAD2 levels at 24 hours post drug administration” value was “rose back to baseline levels” and the inhibition at 75 mg/kg is 92.3%.
